The values below come from US10653688B2, “6-(6-membered heteroaryl and aryl)isoquinolin-3-yl carboxamides and preparation and use thereof” (Samumed, LLC, priority 2017, dated 2020).

Each structure is given as a SMILES string.

For assay [1], the system named is SW480 colon carcinoma cells. The experiment in a line: Cell viability assay (CellTiter-Glo). Format: cell-based, human. To be noted: Homo sapiens; for EC50: 96 h, four days, CellTiter-Glo; for inhibition at 10 µM: read-out: percent inhibition at 10 μM (given for EC50 >10 μM), 10 μM. Background: ATP-based viability assays read luminescence as a measure of living cells.

The subject of assay [2] is Cyclin D1 phosphorylation at Threonine 286 (pCcnD1) over total Cyclin D1 in SH-SY5Y cells. Description: phosphoCcnD1 to total CcnD1 ratio (PTT) cell-based assay, western blot. To be noted: Homo sapiens, 48 hours. As to the method: Representative compounds were screened using the cell-based assay procedure for the ratio of signal of Cyclin D1 phosphorylation at Threonine 286 (pCcnD1) over the signal of total Cyclin D1 (CcnD1) (abbreviated: phosphoCcnD1 to total CcnD1 ratio, or PTT) as described below.
SH-SY5Y cells (human neuroblastoma, Sigma, Saint-Louis, Mo.) were cultured in 1:1 DMEM/F-12 medium supplemented with 15% FBS, 1% non-essential amino acid, and 1% penicillin/streptomycin.
SH-SY5Y cells were seeded at 1.0×10^5 cells in 1 mL per well in a 24-well plate. After cell adherence was confirmed, DMSO-resuspended Samumed compounds were dispensed to eight wells as a serial dilution from 10 μM to 4.6 nM final concentration in medium, or at 1.1 μM to 4.6 nM with particularly potent compounds. Cells were exposed to Samumed compounds for 48 hours in a 37° C. incubator.
Wells of compound-treated cells were visually checked for cell death before being washed with 500 μL per well of 1×DPBS supplemented with phosphatase inhibitor diluted to 1×. Cells were then lysed with 90 μL 1×RIPA buffer supplemented with phosphatase and protease inhibitors (each diluted to a final 1×). After scraping, 60 μL of cell lysate from each sample was used to dilute 4×LDS (ThermoFisher, NP0007) and 20×XT reducing agent (Bio-Rad, 1610792), each diluted to 1× final. All samples were then denatured via boiling at 95° C. Denatured cell sample lysates were directly tested for pCcnD1 and total CcnD1 signal by Western blot techniques and analysis. Specifically, denatured lysates were directly transferred to NuPAGE™ 4-12% Bis-Tris Midi Protein Gels, 26-well gels (ThermoFisher, WG1403BOX). Gels were transferred to […] nitrocellulose membranes via iBlot™ Transfer Stack, nitrocellulose, regular size (ThermoFisher, IB301031). Membranes were blocked with 1×TBS, 5% milk (Bio-Rad, 1706404XTU) before being probed for overnight with either anti-pCcnD1 primary antibody (Cell Signaling Technology, 2978S) or anti-total CcnD1 primary antibody (Cell Signaling Technology, 3300S) diluted 1:500 in 1×TBS-0.05% Tween-20, 3% milk. After overnight incubation in primary antibodies, membranes were washed profusely with 1×TBS-0.05% Tween-20 and probed for 1 hour with secondary anti-rabbit/HRP conjugate (Cell Signaling Technology, 7074S) diluted 1:1000 in 1×TBS-0.05% Tween-20, 3% milk. After incubation in secondary antibody, membranes were washed with 1×TBS-0.05% Tween-20.
Probed and washed membranes were developed for pCcnD1 or total CcnD1 signal with SuperSignal™ West Femto Maximum Sensitivity Substrate (ThermoFisher, 34096) using the ChemoDoc-It^2 (UVP) and related GelDocIt imaging software. Blots were then stripped, blocked, stained with anti-β-actin/HRP conjugate antibody (Cell Signaling Technology, 5125S), developed, and imaged for housekeeping β-actin protein control as previously described. Densitometry was measured with ImageJ (NIH) and signal was used to plot, draw the curves fitting, and determine the EC50 values in GraphPad Prism for tested Samumed compounds.
In general terms: In western blotting, separated proteins are transferred to a membrane and probed.

For assay [3], the system named is secreted cytokines TNFα, IL-6 and KC-GRO in BV-2 cells (mouse microglial cells). The experiment in a line: Secreted cytokines in lipopolysaccharide-stimulated mouse glial cell line. The class given is cell-based. To be noted: LPS 250 ng/mL 5 hours, table does not say which cytokine. In outline: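 BV-2 cells seeded at 35,000/well were pretreated overnight with compound (10 μM to 4.6 nM final), then stimulated 5 h with 250 ng/mL E. coli O111:B4 LPS. Supernatant TNFα, IL-6 and KC-GRO were quantified by electrochemiluminescence against standard curves (pg/mL) to fit EC50. Cytotoxicity was checked by CellTiter-Glo ATP read-out.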

Regarding `Cc1nccn1CC(=O)Nc1cc2cc(-c3cccnc3)ccc2cn1` [Compound 14, 2-(2-Methyl-1H-imidazol-1-yl)-N-(6-(pyridin-3-yl)isoquinolin-3-yl) acetamide], the EC50 (usually the concentration giving half of the maximal effect) in assay [1] is > 10000 nM; in assay [2], 205 nM; in assay [3], 136 nM. Moreover, in assay [1], the inhibition (commonly the change of the read-out against control, counted positive when it falls) at 10 µM amounted to 47.6%.

Consider `O=C(Cn1ccnc1)Nc1cc2cc(-c3cccnc3)ccc2cn1` [Compound 15, 2-(1H-Imidazol-1-yl)-N-(6-(pyridin-3-yl)isoquinolin-3-yl)acetamide], for which the EC50 in assay [1] is 6440 nM; in assay [2], 127 nM; in assay [3] it was 21 nM.

Take `O=C(CN1CCCC1)Nc1cc2cc(-c3cncc(F)c3)ccc2cn1` [Compound 18, N-(6-(5-Fluoropyridin-3-yl)isoquinolin-3-yl)-2-(pyrrolidin-1-yl)acetamide]: the EC50 is > 10000 nM in assay [1], 123 nM in assay [2] and 1330 nM in assay [3]. The inhibition at 10 µM in assay [1] came out at 22.2%.

Take `CN1CCC(C(=O)Nc2cc3cc(-c4cncc(F)c4)ccc3cn2)CC1` [Compound 19, N-(6-(5-Fluoropyridin-3-yl)isoquinolin-3-yl)-1-methylpiperidine-4-carboxamide]: the EC50 in assay [1] was > 10000 nM; in assay [2], 140 nM; in assay [3] it was 124 nM. The inhibition at 10 µM in assay [1] amounted to 42.8%.

`O=C(CCN1CCOCC1)Nc1cc2cc(-c3cncc(F)c3)ccc2cn1` [Compound 23, N-(6-(5-Fluoropyridin-3-yl)isoquinolin-3-yl)-3-morpholinopropanamide]: the half-maximal effective concentration (EC50) in assay [1] was > 10000 nM; in assay [2] it was 80 nM; in assay [3], 628 nM. Moreover, in assay [1], the inhibition at 10 µM is 24.8%.

Take `CN1CCC(C(=O)Nc2cc3cc(-c4cncc(C#N)c4)ccc3cn2)CC1` [Compound 32, N-(6-(5-Cyanopyridin-3-yl)isoquinolin-3-yl)-1-methylpiperidine-4-carboxamide]: the EC50 in assay [1] was > 10000 nM; in assay [2], 1 nM; in assay [3] it was 640 nM. For the same molecule, the inhibition at 10 µM in assay [1] came out at 8.8%.

Take `COc1cncc(-c2ccc3cnc(NC(=O)C4CCN(C)CC4)cc3c2)c1` [Compound 33, N-(6-(5-Methoxypyridin-3-yl)isoquinolin-3-yl)-1-methylpiperidine-4-carboxamide]: the EC50 in assay [1] was 1820 nM; in assay [2] it was 9100 nM; in assay [3], 62 nM.

In the case of `O=C(Nc1cc2cc(-c3cncc(NC4CCNCC4)n3)ccc2cn1)C1CCCCC1` [Compound 44, N-(6-(6-(piperidin-4-ylamino)pyrazin-2-yl)isoquinolin-3-yl) cyclohexanecarboxamide], the values for the EC50 in assay [1], in assay [2] and in assay [3] were 813 nM, 4 nM and 60 nM, respectively.

In the case of `O=C(Nc1cc2cc(-c3cncc(CN4CCCC4)c3)ccc2cn1)C1CC1` [Compound 51, N-(6-(5-(Pyrrolidin-1-ylmethyl)pyridin-3-yl)isoquinolin-3-yl) cyclopropanecarboxamide], the EC50 in assay [1] was determined as 4060 nM; in assay [2], 974 nM; in assay [3] it was 171 nM.

`O=C(Nc1cc2cc(-c3cncc(CN4CCC(O)CC4)c3)ccc2cn1)C1CC1` [Compound 53, N-(6-(5-((4-Hydroxypiperidin-1-yl)methyl)pyridin-3-yl)isoquinolin-3-yl) cyclopropanecarboxamide]: the EC50 in assay [1] was determined as 2350 nM; in assay [2], 30 nM; in assay [3] it was 55 nM.

`CN1CCN(Cc2cncc(-c3ccc4cnc(NC(=O)C5CC5)cc4c3)c2)CC1` [Compound 56, N-(6-(5-((4-Methylpiperazin-1-yl)methyl)pyridin-3-yl)isoquinolin-3-yl) cyclopropanecarboxamide]: the values for the EC50 in assay [1], in assay [2] and in assay [3] were 3300 nM, 45 nM and 177 nM, respectively.

Consider `O=C(Nc1cc2cc(-c3cncc(CN4CCOCC4)c3)ccc2cn1)C1CC1` [Compound 57, N-(6-(5-(Morpholinomethyl)pyridin-3-yl)isoquinolin-3-yl) cyclopropanecarboxamide], for which the results for the EC50 in assay [1], in assay [2] and in assay [3] were 3180 nM, 193 nM and 152 nM, respectively.

As for `[2H]c1nc([2H])c(-c2ccc3cnc(NC(=O)CN4CCCC4)cc3c2)c([2H])c1[2H]` [Compound 60, N-(6-(pyridin-3-yl-d4)isoquinolin-3-yl)-2-(pyrrolidin-1-yl)acetamide], the values for the EC50 in assay [1], in assay [2] and in assay [3] were 3940 nM, 250 nM and 3230 nM, respectively.

Take `CN1CCC(C(=O)Nc2cc3cc(-c4cnccn4)ccc3cn2)CC1` [Compound 75, 1-Methyl-N-(6-(pyrazin-2-yl)isoquinolin-3-yl)piperidine-4-carboxamide]: the EC50 is > 10000 nM in assay [1], 447 nM in assay [2] and 194 nM in assay [3]. In addition, the inhibition at 10 µM in assay [1] is 44.5%.

Consider `CC(C)CN1CCCC(C(=O)Nc2cc3cc(-c4cnccn4)ccc3cn2)CC1` (stereo not shown) [Compound 81, 1-Isobutyl-N-(6-(pyrazin-2-yl)isoquinolin-3-yl)azepane-4-carboxamide], for which the EC50 in assay [1] is > 10000 nM; in assay [2], 3000 nM; in assay [3], 1470 nM. Further, in assay [1], the inhibition at 10 µM was 21.3%.

Take `O=C(Nc1cc2cc(-c3cncc(NC4CCNCC4)n3)ccc2cn1)C1CCOCC1` [Compound 109, N-(6-(6-(Piperidin-4-ylamino)pyrazin-2-yl)isoquinolin-3-yl)tetrahydro-2H-pyran-4-carboxamide]: the EC50 is 1220 nM in assay [1], 412 nM in assay [2] and 211 nM in assay [3].

Take `CN1CCN(c2cc(C(=O)Nc3cc4cc(-c5cnc6ocnc6c5)ccc4cn3)ccn2)CC1` [Compound 132, 2-(4-Methylpiperazin-1-yl)-N-(6-(oxazolo[5,4-b]pyridin-6-yl)isoquinolin-3-yl)isonicotinamide]: the figures for the EC50 in assay [1], in assay [2] and in assay [3] were 1510 nM, > 10000 nM and 6080 nM, respectively.

For `Cc1cc2ncc(-c3ccc4cnc(NC(=O)c5ccnc(N6CCN(C)CC6)c5)cc4c3)cc2[nH]1` [Compound 135, N-(6-(2-Methyl-1H-pyrrolo[3,2-b]pyridin-6-yl)isoquinolin-3-yl)-2-(4-methylpiperazin-1-yl)isonicotinamide], the EC50 in assay [1] was found to be 2370 nM; in assay [2], 37 nM; in assay [3], 2240 nM.

For the molecule `O=C(CN1CCOCC1)Nc1cc2cc(-c3cccnc3)c(F)cc2cn1` [Compound 144, N-(7-Fluoro-6-(pyridin-3-yl)isoquinolin-3-yl)-2-morpholinoacetamide], the values for the EC50 in assay [1], in assay [2] and in assay [3] were > 10000 nM, 298 nM and 157 nM, respectively. The inhibition at 10 µM in assay [1] is 22%.

With `CN1CCN(CC(=O)Nc2cc3cc(-c4cccnc4)c(F)cc3cn2)CC1` [Compound 145, N-(7-Fluoro-6-(pyridin-3-yl)isoquinolin-3-yl)-2-(4-methylpiperazin-1-yl) acetamide], the results for the concentration for a half-maximal effect (EC50) in assay [1], in assay [2] and in assay [3] were > 10000 nM, 48 nM and 157 nM, respectively. Also, the inhibition at 10 µM in assay [1] was 18.8%.

On to `Cc1cncc(-c2ccc3cnc(NC(=O)CN4CCOCC4)cc3c2)c1` [Compound 146, N-(6-(5-Methylpyridin-3-yl)isoquinolin-3-yl)-2-morpholinoacetamide], for which the EC50 is > 10000 nM in assay [1], 68 nM in assay [2] and 201 nM in assay [3]. Further, the inhibition at 10 µM in assay [1] is 23.1%.
